Among the data in the RepoRT retention time repository (doi:10.1016/j.foodchem.2021.129757) are LC retention time values, retold here.

Molecules are shown by their SMILES.

The nature of the first data set: RP, 100 × 0.5 mm, 2.7 µm, 45 °C, 0.015 mL/min, estimated dead time 0.83 min; A: water + 0.9% formic acid; B: acetonitrile + 0.9% formic acid; gradient (min/%B) 0/1 0.5/1 4/95 4.5/1 5/1. The settings on record: stereoisomer not certain.
`O=C(O)CNC(=O)c1ccccc1` [Hippuric acid]: the LC retention time was 2.13 min.

A short description of another data set: RP, 50 × 0.5 mm, 2.7 µm, 35 °C, 0.01 mL/min, estimated dead time 0.62 min; A: water + 0.1% formic acid, pH 3; B: acetonitrile + 0.1% formic acid, pH 3; gradient (min/%B) 0/5 12/95 14/95 16/5. The settings on record: stereoisomer not certain.
`COc1cc(C=CC(=O)O)cc(OC)c1O` [Sinapic acid]: the LC retention time was 4.25 min.
With `COc1cc(C(=O)O)ccc1O` [Vanillic acid], the LC retention time is 2.97 min.
On to `O=C(O)c1ccc(O)c(O)c1` [Protocatechuic acid], for which the LC retention time was 1.76 min.
Same read-out and setting: next, `O=C(O)CNC(=O)c1ccccc1` [Hippuric acid]: 2.59 min.

The nature of another data set: Other, Phenomenex Kinetex PFP, 100 × 4.6 mm, 5 µm, 45 °C, 0.6 mL/min, estimated dead time 1.8 min; A: water + 0.1% trifluoroacetic acid, pH 2; B: methanol; gradient (min/%B) 0/40 20/72 21/40. The settings on record: stereoisomer not certain.
As to `O=C(O)c1ccc(O)c(O)c1` [Protocatechuic acid], the LC retention time is 3.85 min.

A further data set is described as follows: RP, 150 × 2.1 mm, 2.6 µm, 40 °C, 0.35 mL/min, estimated dead time 0.94 min; A: water + 0.1% formic acid, pH 3; B: acetonitrile + 0.1% formic acid, pH 3; gradient (min/%B) 0/0 1/0 12.5/100 14/100 14.2/0 15/0. Particulars: stereoisomer not certain.
For `COc1cc(C=CC(=O)O)cc(OC)c1O` [Sinapic acid], the LC retention time was 2.81 min.
For the compound `COc1cc(C(=O)O)ccc1O` [Vanillic acid], the LC retention time was 3.6 min.

Another data set is described as follows: RP, 150 × 2.1 mm, 2.6 µm, 40 °C, 0.35 mL/min, estimated dead time 0.94 min; A: water + 0.1% formic acid, pH 3; B: acetonitrile + 0.1% formic acid, pH 3; gradient (min/%B) 0/0 1/5 7/45 8.5/80 10.5/80 11/5 12/5. Particulars: stereoisomer not certain.
In the case of `COc1cc(C=CC(=O)O)cc(OC)c1O` [Sinapic acid], the LC retention time was 2.79 min.
For `COc1cc(C(=O)O)ccc1O` [Vanillic acid], the LC retention time was 3.36 min.

The nature of another data set: RP, Phenomenex Kinetex EVO C18, 100 × 2.1 mm, 2.6 µm, 40 °C, 0.4 mL/min, estimated dead time 0.55 min; A: water + 0.2% formic acid; B: acetonitrile + 0.2% formic acid; gradient (min/%B) 0/5 0.5/5 7/95 8/95 8.5/5 12/5. The settings on record: stereoisomer not certain.
Regarding `O=C(O)c1ccc(O)c(O)c1` [Protocatechuic acid], the LC retention time was 1.55 min.
As for `O=C(O)CNC(=O)c1ccccc1` [Hippuric acid], the LC retention time was 3.8 min.

Another data set can be described thus: RP, Phenomenex Synergi Hydro-RP, 150 × 2 mm, 4 µm, 30 °C, 0.5 mL/min, estimated dead time 0.6 min; A: water + 0.1% formic acid, pH 3; B: acetonitrile + 0.1% formic acid, pH 3; gradient (min/%B) 0/5 1/5 35/45 40/100 45/100. Particulars: stereoisomer not certain.
As for `COc1cc(C=CC(=O)O)cc(OC)c1O` [Sinapic acid], the LC retention time was 15.2 min.
On to `O=C(O)c1ccc(O)c(O)c1` [Protocatechuic acid], for which the LC retention time was 5.02 min.
As to `O=C(O)CNC(=O)c1ccccc1` [Hippuric acid], the LC retention time was 8.54 min.

A short description of another data set: RP, Phenomenex Luna Omega Polar C18, 100 × 2.1 mm, 1.6 µm, 40 °C, 0.5 mL/min, estimated dead time 0.44 min; A: water + 0.5% formic acid; B: acetonitrile + 0.5% formic acid; gradient (min/%B) 0/5 3/50 3.1/100 5/100 5.1/5 7/5. Particulars: stereoisomer not certain.
Take `COc1cc(C=CC(=O)O)cc(OC)c1O` [Sinapic acid]: the LC retention time is 2.53 min.
As for `COc1cc(C(=O)O)ccc1O` [Vanillic acid], the LC retention time was 2.07 min.
With `O=C(O)c1ccc(O)c(O)c1` [Protocatechuic acid], the LC retention time is 1.54 min.
The same measure, in the same setting: next, `O=C(O)CNC(=O)c1ccccc1` [Hippuric acid]: 2.01 min.

Another data set in a line: RP, Phenomenex Luna C18, 150 × 4.6 mm, 3 µm, 25 °C, 0.5 mL/min, estimated dead time 3.2 min; A: water + 0.1% formic acid, pH 3; B: acetonitrile + 0.1% formic acid, pH 3; gradient (min/%B) 0/0 30/30 35/40 50/80 52/80 60/0 65/0. Particulars: stereoisomer not certain.
With `COc1cc(C=CC(=O)O)cc(OC)c1O` [Sinapic acid], the LC retention time was 25.1 min.
Take `COc1cc(C(=O)O)ccc1O` [Vanillic acid]: the LC retention time is 15.7 min.
`O=C(O)c1ccc(O)c(O)c1` [Protocatechuic acid]: the LC retention time is 9.27 min.
As to `O=C(O)CNC(=O)c1ccccc1` [Hippuric acid], the LC retention time is 15.1 min.

The next data set can be described thus: RP, Waters ACQUITY UPLC HSS T3, 100 × 2.1 mm, 50 °C; A: water + 0.1% formic acid, pH 3; B: 30% methanol + 70% acetonitrile + 0.1% formic acid, pH 3; gradient (min/%B) 0/5 1/8 2/15 3/40 4/70 4.5/100 5/100 6.4/100 6.6/5 6.8/5 7/5. Particulars: stereoisomer not certain.
`COc1cc(C(=O)O)ccc1O` [Vanillic acid]: the LC retention time was 3.2 min.
For the compound `O=C(O)CNC(=O)c1ccccc1` [Hippuric acid], the LC retention time came to 3.07 min.

The nature of the next data set: RP, Merck LiChrospher RP-18, 250 × 4 mm, 5 µm, 35 °C, 0.3 mL/min, estimated dead time 6.7 min; A: water + 0.5% formic acid; B: acetonitrile + 0.5% formic acid; gradient (min/%B) 0/5 10/5 30/15 45/20 65/20 95/54 110/63 115/5 135/5. The settings on record: stereoisomer not certain.
`COc1cc(C(=O)O)ccc1O` [Vanillic acid]: the LC retention time was 44.7 min.
Consider `O=C(O)c1ccc(O)c(O)c1` [Protocatechuic acid], for which the LC retention time is 29.7 min.

A short description of the next data set: RP, Phenomenex Luna Omega Polar C18, 100 × 2.1 mm, 1.6 µm, 40 °C, 0.5 mL/min, estimated dead time 0.44 min; A: water + 0.1% formic acid + 10 mM ammonium formate; B: acetonitrile; gradient (min/%B) 0/5 8/20 10/100 12/100 12.1/5 14/5. Particulars: stereoisomer not certain.
Turning to `COc1cc(C=CC(=O)O)cc(OC)c1O` [Sinapic acid], the LC retention time is 7.22 min.
For the compound `COc1cc(C(=O)O)ccc1O` [Vanillic acid], the LC retention time was 4.01 min.
Take `O=C(O)c1ccc(O)c(O)c1` [Protocatechuic acid]: the LC retention time was 2.06 min.
As to `O=C(O)CNC(=O)c1ccccc1` [Hippuric acid], the LC retention time is 3.2 min.

A further data set is described as follows: RP, Waters ACQUITY UPLC HSS T3, 100 × 2.1 mm, 1.8 µm, 30 °C, 0.4 mL/min, estimated dead time 0.55 min; A: water + 0.1% formic acid, pH 3; B: acetonitrile + 0.1% formic acid, pH 3; gradient (min/%B) 0/0 2/0 15/100 22/100 22.1/0 26/0. Particulars: stereoisomer not certain.
As to `COc1cc(C=CC(=O)O)cc(OC)c1O` [Sinapic acid], the LC retention time was 9.44 min.
Consider `COc1cc(C(=O)O)ccc1O` [Vanillic acid], for which the LC retention time was 8.52 min.
Same read-out and setting: next, `O=C(O)c1ccc(O)c(O)c1` [Protocatechuic acid]: 7.22 min; `O=C(O)CNC(=O)c1ccccc1` [Hippuric acid]: 8.4 min.

A further data set in a line: RP, Agilent ZORBAX Eclipse XDB-C18, 100 × 2.1 mm, 1.8 µm, 50 °C, 0.4 mL/min, estimated dead time 0.55 min; A: water + 0.1% formic acid, pH 3; B: methanol + 0.1% formic acid, pH 3; gradient (min/%B) 0/2 10/100 14.5/100 14.51/2 16.5/2. The settings on record: stereoisomer not certain.
In the case of `COc1cc(C=CC(=O)O)cc(OC)c1O` [Sinapic acid], the LC retention time was 4.97 min.
On to `COc1cc(C(=O)O)ccc1O` [Vanillic acid], for which the LC retention time was 3.61 min.
Consider `O=C(O)c1ccc(O)c(O)c1` [Protocatechuic acid], for which the LC retention time was 2.31 min.
